Source: patent publication US11759462B2, “Spirocyclic compounds as tryptophan hydroxylase inhibitors” (priority 2013, dated 2023)
Read-outs that look alike come from different tables or passages of the source.

Tests used:
[1] = biological target: T1, Recombinant human TPH1 (MBP tagged) (Homo sapiens, UniProt P17752); experiment: TPH1 in vitro inhibition assay (kinetic fluorescence); assay type: biochemical
T1 construct: cloning full length human TPH1 cDNA in to a bacterial pMAL-c5E expression vector; made in house; host or cells: E. coli BL21 (DE3)
T1 sequence (P17752 1-444): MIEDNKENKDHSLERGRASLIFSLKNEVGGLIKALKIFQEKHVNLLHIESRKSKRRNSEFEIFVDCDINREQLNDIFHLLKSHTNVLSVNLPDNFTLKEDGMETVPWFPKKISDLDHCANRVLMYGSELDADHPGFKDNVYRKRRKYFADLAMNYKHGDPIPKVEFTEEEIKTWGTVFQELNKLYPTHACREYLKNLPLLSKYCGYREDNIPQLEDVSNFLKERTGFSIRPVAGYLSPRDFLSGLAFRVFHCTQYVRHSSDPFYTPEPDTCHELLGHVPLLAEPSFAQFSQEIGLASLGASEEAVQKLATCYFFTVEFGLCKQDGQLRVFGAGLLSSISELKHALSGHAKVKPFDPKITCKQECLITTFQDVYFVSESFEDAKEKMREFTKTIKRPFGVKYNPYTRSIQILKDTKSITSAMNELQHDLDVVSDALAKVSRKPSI
Procedure, shortened: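 Final mix: 15 nM MBP-TPH1, 30 μM Trp, 36 μM 6-methyltetrahydropterin, 25 μM ferrous ammonium sulfate, 50 mM MES pH 7.1, 1% DMSO, room temperature.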

[2] = system: jejunal mucosal 5-HT in mice (C57 BL6); experiment: Intestinal 5-HT depletion assay (Example B, single 150 mg/kg oral dose); assay type: in vivo, mouse; settings: one day after oral administration of a single 150 mg/kg dose, P-value class (ANOVA)
Procedure, shortened: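 C57 BL6 mice received one 150 mg/kg oral gavage dose; jejunal mucosa was homogenized in acidic trichloroacetic acid buffer and 5-HT measured by HPLC. Levels normalized to BCA protein, expressed as mean percent reduction versus vehicle ± SEM; ANOVA significance.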

[3] = system: jejunal mucosal 5-HT in mice (C57 BL6); experiment: Reduction of mucosal 5-HT concentrations (Example C, repeated oral dosing); assay type: in vivo, mouse; settings: P-value class
Experimental: The efficacy of the TPH1 inhibitors of the invention was assessed for the ability to decrease intestinal serotonin concentration in mice. Mice (C57 BL6) were administered an oral dose of 10 or 50 mg/kg of the test article in the evening. […] Following an overnight fast, each animal was euthanized by exsanguination under isoflurane anesthesia. Jejunal intestinal mucosa was isolated and homogenized in […] of a buffer containing 0.3M trichloroacetic acid, 0.1M sodium acetate, 10 mM EDTA, 20 mM sodium bisulfate and 50 mM ascorbic acid. Following centrifugation the 5-HT levels in the supernatants were measured by HPLC. The remaining mucosal pellet was solubilized overnight at 37° C. in a 0.1% sodium dodecyl sulfate buffer in 0.1N NaOH followed by determination of protein concentrations using a BCA protein assay (Pierce, Rockford, Ill.). 5-HT levels were normalized to protein and data were expressed as mean percent reduction of mucosal 5-HT levels relative to vehicle control±SEM (percent 5-HT reduction). All animal studies were carried out with protocols approved by the Institutional Animal Care and Use Committee. P-values, indicating statistical significance of the data (ANOVA) are provided in the table: * refers to P<0.05,** refers to P<0.01, *** refers to P<0.005, and **** refers to P<0.0005.

[4] = read-out: TPH1 Range (TPH1 inhibition IC50)
[5] = after three oral doses (first 10 or 50 mg/kg, then two doses of 50 mg/kg) (title)

| IC50 [1, 4] [nM] | SMILES | Efficacy (statistical significance of reduction of mucosal 5-HT concentrations relative to vehicle) [2] | Efficacy (statistical significance of reduction of mucosal 5-HT concentrations relative to vehicle) [3, 5] | IC50 ([1]; TPH1 Range (TPH1 inhibition IC50)) [nM] | Efficacy (statistical significance of reduction of mucosal 5-HT concentrations relative to vehicle) ([3]; (title)) |
| --- | --- | --- | --- | --- | --- |
| < 50 | Cc1ccn(-c2cc(-c3ccc(OC(C)C)cc3)ccc2[C@@H](Oc2cc(N3CCC4(CC3)CN[C@H](C(=O)O)C4)nc(N)n2)C(F)(F)F)n1 [Example 1l, (S)-8-(2-amino-6-((R)-2,2,2-trifluoro-1-(4′-isopropoxy-3-(3-methyl-1H-pyrazol-1-yl)-[1,1′-biphenyl]-4-yl)ethoxy)pyrimidin-4-yl)-2,8-diazaspiro[4.5]decane-3-carboxylic acid] | **** (and refers to P<0.0005) | *** (*** refers to P<0.005) | – | – |
| – | Cc1ccn(-c2cc(-c3ccc(C)c(C)c3)ccc2[C@@H](Oc2cc(N3CCC4(CC3)CN[C@H](C(=O)O)C4)nc(N)n2)C(F)(F)F)n1 [Example 1m, (S)-8-(2-amino-6-((R)-1-(3′,4′-dimethyl-3-(3-methyl-1H-pyrazol-1-yl)-[1,1′-biphenyl]-4-yl)-2,2,2-trifluoroethoxy)pyrimidin-4-yl)-2,8-diazaspiro[4.5]decane-3-carboxylic acid] | *** (*** refers to P<0.005) | – | < 50 | * (* refers to P<0.05) |
| < 50 | COc1cc(-c2ccc([C@@H](Oc3cc(N4CCC5(CC4)CN[C@H](C(=O)O)C5)nc(N)n3)C(F)(F)F)c(-n3ccc(C)n3)c2)ccn1 [Example 1n, (S)-8-(2-amino-6-((R)-2,2,2-trifluoro-1-(4-(2-methoxypyridin-4-yl)-2-(3-methyl-1H-pyrazol-1-yl)phenyl)ethoxy)pyrimidin-4-yl)-2,8-diazaspiro[4.5]decane-3-carboxylic acid] | ** (** refers to P<0.01) | *** (*** refers to P<0.005) | – | – |
| – | CCOC(=O)[C@@H]1CC2(CCN(c3cc(O[C@H](c4ccc(-c5ccc(C)c(C)c5)cc4-n4ccc(C)n4)C(F)(F)F)nc(N)n3)CC2)CN1 [Example 63bd, (S)-ethyl 8-(2-amino-6-((R)-1-(3′,4′-dimethyl-3-(3-methyl-1H-pyrazol-1-yl)-[1,1′-biphenyl]-4-yl)-2,2,2-trifluoroethoxy)pyrimidin-4-yl)-2,8-diazaspiro[4.5]decane-3-carboxylate] | *** (*** refers to P<0.005) | *** (*** refers to P<0.005) | – | – |
| – | CCCc1ccc([C@@H](Oc2cc(N3CCC4(CC3)CN[C@H](C(=O)OCC)C4)nc(N)n2)C(F)(F)F)c(-n2ccc(C)n2)c1 [Example 63bf, (S)-ethyl 8-(2-amino-6-((R)-2,2,2-trifluoro-1-(2-(3-methyl-1H-pyrazol-1-yl)-4-propylphenyl)ethoxy)pyrimidin-4-yl)-2,8-diazaspiro[4.5]decane-3-carboxylate] | **** (and refers to P<0.0005) | *** (*** refers to P<0.005) | – | – |
| – | CCCCc1ccc([C@@H](Oc2cc(N3CCC4(CC3)CN[C@H](C(=O)OCC)C4)nc(N)n2)C(F)(F)F)c(-n2ccc(C)n2)c1 [Example 63bg, (S)-ethyl 8-(2-amino-6-((R)-1-(4-butyl-2-(3-methyl-1H-pyrazol-1-yl)phenyl)-2,2,2-trifluoroethoxy)pyrimidin-4-yl)-2,8-diazaspiro[4.5]decane-3-carboxylate] | **** (and refers to P<0.0005) | *** (*** refers to P<0.005) | – | – |
| – | CCOC(=O)[C@@H]1CC2(CCN(c3cc(O[C@H](c4cc(-c5ccc(C)c(C)c5)ccc4-n4ccc(C)n4)C(F)(F)F)nc(N)n3)CC2)CN1 [Example 63bn, (S)-ethyl 8-(2-amino-6-((R)-1-(3′,4′-dimethyl-4-(3-methyl-1H-pyrazol-1-yl)-[1,1′-biphenyl]-3-yl)-2,2,2-trifluoroethoxy)pyrimidin-4-yl)-2,8-diazaspiro[4.5]decane-3-carboxylate] | **** (and refers to P<0.0005) | **** (**** refers to P<0.0005) | – | – |
| – | CCCc1ccc(-n2ccc(C)n2)c([C@@H](Oc2cc(N3CCC4(CC3)CN[C@H](C(=O)OCC)C4)nc(N)n2)C(F)(F)F)c1 [Example 63bo, (S)-ethyl 8-(2-amino-6-((R)-2,2,2-trifluoro-1-(2-(3-methyl-1H-pyrazol-1-yl)-5-propylphenyl)ethoxy)pyrimidin-4-yl)-2,8-diazaspiro[4.5]decane-3-carboxylate] | **** (and refers to P<0.0005) | *** (*** refers to P<0.005) | – | – |
| – | CCOC(=O)[C@@H]1CC2(CCN(c3cc(O[C@H](c4cc(CC)ccc4-n4ccc(C)n4)C(F)(F)F)nc(N)n3)CC2)CN1 [Example 63bp, (S)-ethyl 8-(2-amino-6-((R)-1-(5-ethyl-2-(3-methyl-1H-pyrazol-1-yl)phenyl)-2,2,2-trifluoroethoxy)pyrimidin-4-yl)-2,8-diazaspiro[4.5]decane-3-carboxylate] | **** (and refers to P<0.0005) | *** (*** refers to P<0.005) | – | – |
| – | CCOC(=O)[C@@H]1CC2(CCN(c3cc(O[C@H](c4ccc(Cl)cc4-c4cccc(S(N)(=O)=O)c4)C(F)(F)F)nc(N)n3)CC2)CN1 [Example 63ch, (S)-ethyl 8-(2-amino-6-((R)-1-(5-chloro-3′-sulfamoyl-[1,1′-biphenyl]-2-yl)-2,2,2-trifluoroethoxy)pyrimidin-4-yl)-2,8-diazaspiro[4.5]decane-3-carboxylate] | *** (*** refers to P<0.005) | *** (*** refers to P<0.005) | – | – |
| – | CCOC(=O)[C@@H]1CC2(CCN(c3cc(O[C@H](c4ccc(Cl)cc4-c4cccc(S(C)(=O)=O)c4)C(F)(F)F)nc(N)n3)CC2)CN1 [Example 63cj, (S)-ethyl 8-(2-amino-6-((R)-1-(5-chloro-3′-(methylsulfonyl)-[1,1′-biphenyl]-2-yl)-2,2,2-trifluoroethoxy)pyrimidin-4-yl)-2,8-diazaspiro[4.5]decane-3-carboxylate] | *** (*** refers to P<0.005) | ** (** refers to P<0.01) | – | – |
| – | CCOC(=O)[C@@H]1CC2(CCN(c3cc(O[C@H](c4ccc(-c5ccc6ncccc6c5)cc4)C(F)(F)F)nc(N)n3)CC2)CN1 [Example 63cl, (S)-ethyl 8-(2-amino-6-((R)-2,2,2-trifluoro-1-(4-(quinolin-6-yl)phenyl)ethoxy)pyrimidin-4-yl)-2,8-diazaspiro[4.5]decane-3-carboxylate] | *** (*** refers to P<0.005) | – | – | *** (*** refers to P<0.005) |
| – | CCOC(=O)c1ccc(-c2ccc(-n3ccc(C)n3)c([C@@H](Oc3cc(N4CCC5(CC4)CN[C@H](C(=O)OCC)C5)nc(N)n3)C(F)(F)F)c2)cc1 [Example 63dc, (S)-ethyl 8-(2-amino-6-((R)-1-(4′-(ethoxycarbonyl)-4-(3-methyl-1H-pyrazol-1-yl)-[1,1′-biphenyl]-3-yl)-2,2,2-trifluoroethoxy)pyrimidin-4-yl)-2,8-diazaspiro[4.5]decane-3-carboxylate] | *** (*** refers to P<0.005) | *** (*** refers to P<0.005) | – | – |
